Measured values taken from patent publication US11512074B2, “Substituted diamino heterocyclic carboxamide compound and a composition containing the compound and use thereof” (Shenzhen TargetRx, Inc., priority 2018, dated 2022).

Assay: Metabolic stability in human liver microsomes
Assay type: in vitro ADME
Conditions: pH 7.4; human liver microsomes 0.5 mg/mL, 1 μM compound
Experimental: Microsome assay: human liver microsomes: 0.5 mg/mL, Xenotech; rat liver microsomes: 0.5 mg/mL, Xenotech; coenzyme (NADPH/NADH): 1 mM, Sigma Life Science; magnesium chloride: 5 mM, 100 mM phosphate buffer (pH 7.4).
Preparation of stock solutions: Powder of the example compounds and the control compound were accurately weighed and dissolved in DMSO to 5 mM respectively.
Preparation of phosphate buffer (100 mM, pH7.4): A pre-prepared 0.5 M potassium dihydrogen phosphate (150 mL) was mixed with 0.5 M dibasic potassium phosphate (700 mL). The pH of the mixture was adjusted to 7.4 with 0.5 M dibasic potassium phosphate solution. The mixture was diluted 5-fold with ultrapure water before use, and magnesium chloride was added to obtain a phosphate buffer (100 mM) containing 100 mM potassium phosphate, 3.3 mM magnesium chloride, pH 7.4.
A NADPH regeneration system solution (containing 6.5 mM NADP, 16.5 mM G-6-P, 3 U/mL G-6-P D, 3.3 mM magnesium chloride) was prepared and placed on wet ice prior to use.
Preparation of stop solution: an acetonitrile solution containing 50 ng/mL propranolol hydrochloride and 200 ng/mL tolbutamide (internal standard). 25057.5 μL of phosphate buffer (pH 7.4) was taken into a 50 mL centrifuge tube, to which 812.5 μL of human liver microsomes were added, and mixed to obtain a liver microsome dilution with a protein concentration of 0.625 mg/mL. 25057.5 μL of phosphate buffer (pH 7.4) was taken into a 50 mL centrifuge tube, to which 812.5 μL of SD rat microsomes were added, and mixed to obtain a liver microsome dilution with a protein concentration of 0.625 mg/mL.
Incubation of the samples: The stock solutions of the respective compounds were respectively diluted to 0.25 mM with an aqueous solution containing 70% acetonitrile, and used as a working solution, ready for use. 398 μL of the dilutions of human liver microsomes and rat liver microsomes were added to 96-well incubation plates (N=2), respectively, and 2 μL of 0.25 mM working solution was added respectively and mixed.
Metabolic stability assay: 300 μL of pre-chilled stop solution was added to each well of 96-well deep well plates and placed on ice as stop plates. The 96-well incubation plates and NADPH regeneration system were placed in a 37° C. water bath, shaken at 100 rpm and pre-incubated for 5 min. 80 μL of incubation solution was taken out from each well of the incubation plates and added to the stop plates, mixed, and replenished with 20 μL of NADPH regeneration system solution as a 0-min sample. 80 μL of NADPH regeneration system solution was added to each well of the incubation plates to start the reaction and start counting. […] Separately, 100 μL of the reaction solutions was taken at 10, 30, and 90 min after the reaction, respectively, added to stop plates, and vortexed for 3 minutes to terminate the reaction. The stop plates were centrifuged at 5000×g at 4° C. for 10 min. 100 μL of the supernatant was added to a 96-well plate to which 100 μL of distilled water was previously added, mixed, and analyzed by LC-MS/MS.
Data analysis: The peak areas of the corresponding compounds and internal standard were detected by LC-MS/MS system, and the ratio of the peak area of the compounds to the internal standard was calculated.

Row | SMILES | half-life at 1 μM [h] | microsomal CLint at 1 μM [µL/min/mg]
1 | [2H]C1([2H])N(C)C([2H])([2H])C([2H])([2H])N(C2CCN(c3ccc(Nc4nc(NC5CCOCC5)c(CC)nc4C(N)=O)cc3OC)CC2)C1([2H])[2H] [Compound T-8, 6-ethyl-3-((3-methoxy-4-(4-(4-methylpiperazin-1-yl-2,2,3,3,5,5,6,6-d8)piperidin-1-yl)phenyl)amino)-5-((tetrahydro-2H-pyran-4-yl)amino)pyrazine-2-carboxamide] | 4.36 | 5.3
2 | [2H]C([2H])([2H])N1C([2H])([2H])C([2H])([2H])N(C2CCN(c3ccc(Nc4nc(NC5CCOCC5)c(CC)nc4C(N)=O)cc3OC)CC2)C([2H])([2H])C1([2H])[2H] [Compound T-9, 6-ethyl-3-((3-methoxy-4-(4-(4-(methyl-d3)piperazin-1-yl-2,2,3,3,5,5,6,6-d8)piperidin-1-yl)phenyl)amino)-5-((tetrahydro-2H-pyran-4-yl)amino)pyrazine-2-carboxamide] | 7.88 | 2.9
3 | CCc1nc(C(N)=O)c(Nc2ccc(N3CCC(N4CCN(C)CC4)CC3)c(OC)c2)nc1NC1CCOCC1 [Gilteritinib, 6-ethyl-3-((3-methoxy-4-(4-(4-methylpiperazin-1-yl)piperidin-1-yl)phenyl)amino)-5-((tetrahydro-2H-pyran-4-yl)amino)pyrazine-2-carboxamide, reference compound] | 2.75 | 8.4

The next lines start with the values.

Row | half-life at 1 μM [h] | microsomal CLint at 1 μM [µL/min/mg] | SMILES
4 | 3.63 | 6.4 | [2H]C([2H])([2H])N1CCN(C2CCN(c3ccc(Nc4nc(NC5CCOCC5)c(CC)nc4C(N)=O)cc3OC)CC2)CC1 [Compound T-2, 6-ethyl-3-((3-methoxy-4-(4-(4-(methyl-d3)piperazin-1-yl)piperidin-1-yl)phenyl)amino)-5-((tetrahydro-2H-pyran-4-yl)amino)pyrazine-2-carboxamide]
5 | 3.33 | 6.9 | [2H]C([2H])([2H])Oc1cc(Nc2nc(NC3CCOCC3)c(CC)nc2C(N)=O)ccc1N1CCC(N2CCN(C([2H])([2H])[2H])CC2)CC1 [Compound T-3, 6-ethyl-3-((3-(methoxy-d3)-4-(4-(4-(methyl-d3)piperazin-1-yl)piperidin-1-yl)phenyl)amino)-5-((tetrahydro-2H-pyran-4-yl)amino)pyrazine-2-carboxamide]
6 | 3.14 | 7.4 | [2H]C([2H])([2H])N1CCN(C2CCN(c3ccc(Nc4nc(NC5CCOCC5)c(C([2H])([2H])C([2H])([2H])[2H])nc4C(N)=O)cc3OC)CC2)CC1 [Compound T-5, 6-(ethyl-d5)-3-((3-methoxy-4-(4-(4-(methyl-d3)piperazin-1-yl)piperidin-1-yl)phenyl)amino)-5-((tetrahydro-2H-pyran-4-yl)amino)pyrazine-2-carboxamide]
